Results on 23 compounds are retold here after patent US6503934B2, “Substituted thiadiazolesulfonamides” (Aventis Pharma Deutschland GmbH, priority 1998, dated 2003).

The assay deals with release of IL-1β. The experiment in a line: Inhibition of LPS-induced IL-1β release from isolated human mononuclear cells (enzyme immunoassay). The class given is cell-based. As to conditions: human mononuclear cells from citrate blood, lipopolysaccharide (Salmonella abortus equi) induced, 37° C. for 20 hours, IL-1β in supernatant; seven concentrations. How it is done:
The mononuclear cells were concentrated from freshly obtained human citrate blood by known standard processes. See, e.g., Tiku et al., J. Immunol. 136/10 (1986) 3677.
15 ml of Lymphoprep® (Molter GmbH, Heidelberg, FRG) was carefully introduced under a layer of 10 ml of freshly prepared human citrate blood and the mixture was then centrifuged at 400×g (Minifuge®, Heraeus, Hanau, FRG) at 20° C. for 40 minutes. The cell fraction, showing as a white ring in the phase boundary, was withdrawn with the aid of a syringe, diluted 1:1 (v/v) with PM-16 buffer (Serva, Heidelberg, FRG) and centrifuged again as above for 10 minutes. The […] was taken up in 10 ml of RPMI 1640 buffer (Gibco, Berlin, FRG), to which 300 mg/I of L-glutamine, 25 mmol/l of HEPES, […] of penicillin had been added beforehand. The cell suspension, comprising about 90% lymphocytes and 10% monocytes, was adjusted to about 5 million cells/ml with the aid of a cell counter (type IT, Coulter Diagnostics, Krefeld, FRG). The cell viability was checked with the aid of the known lactate dehydrogenase method before and after the inhibition experiments. No change in the viability was found here.
The synthesis and release of cellular IL-1β was induced by adding a solution of […] of lipopolysaccharide (Salmonella abortus equi, Sigma GmbH, Deisenhofen, FRG) in 0.01 ml of dimethyl sulfoxide/water (1:10, v/v) to 0.48 ml of the cell fraction described above. At the same time, a solution of the test substance in 0.01 ml was added to the cell fraction, and the mixture was left in a commercially available incubator at 37° C. for 20 hours. After the sample had been cooled to 0° C., it was centrifuged in a bench centrifuge for 1 minute and in each case 0.025 ml aliquots of the supernatant were investigated specifically for their IL-1β content with the aid of a commercially available “sandwich” enzyme immunoassay kit (Biosource, Ratingen, FRG), in accordance with the manufacturer's instructions. The control values, without addition of the test preparation, were determined and set at 100%. In particular, any influence of dimethyl sulfoxide on the IL-1β level was excluded by corresponding comparison measurements.
The concentration range was chosen here such that it comprised the ranges from 0% inhibition (that is to say without addition of the test substance) to at least 80% inhibition. The test substance concentration which led to 50% inhibition of the release of IL-1β was determined by extrapolation from the dose-effect relationship determined by graph or mathematically.
IC50 value has been shown in Table 2 as micromoles/liter for the corresponding compounds of the formula (I) according to the invention.

For orientation: IC50 means the midpoint of a concentration-inhibition curve. Higher therefore signals weaker potency in that assay. As for `CN(c1ccccc1)S(=O)(=O)c1nc(-c2ccccc2)ns1` [Example 1], the IC50 was 11 µM. Consider `O=S(=O)(c1nc(-c2ccccc2)ns1)N1CCOCC1` [Example 2], for which 3 µM corresponded to half-maximal inhibition (IC50). Compared with the last compound, the IC50 is about 3.7-fold lower. Then `O=S(=O)(Nc1ccc(Cl)cc1)c1nc(-c2ccccc2)ns1` [Example 3], with 34 µM; and `O=S(=O)(NCc1ccccc1)c1nc(-c2ccccc2)ns1` [Example 4], with 15 µM; and `O=S(=O)(NC1CCCCC1)c1nc(-c2ccccc2)ns1` [Example 5], with 6 µM. `COC(=O)[C@H](C)NS(=O)(=O)c1nc(-c2ccccc2)ns1` [Example 7]: the midpoint of inhibition, the IC50, lay at 2 µM. On to `CN1CCN(S(=O)(=O)c2nc(-c3ccccc3)ns2)CC1` [Example 8], for which half-maximal inhibition (IC50) was put at 4 µM. The figure for `O=C(O)C1CCC(CNS(=O)(=O)c2nc(-c3ccccc3)ns2)CC1` (centres unmarked) [Example 9] is 2 µM; for `O=S(=O)(c1nc(-c2ccccc2)ns1)N1CCN(c2ccc(Cl)cc2)CC1` [Example 10] it is 10 µM; for `CCOC(=O)C1CCN(S(=O)(=O)c2nc(-c3ccccc3)ns2)CC1` [Example 12] it is 2 µM. `O=C1CCN(S(=O)(=O)c2nc(-c3ccccc3)ns2)CC1` [Example 13]: half-maximal inhibition (IC50) required 2 µM.

As to `O=C(O)C1CCN(S(=O)(=O)c2nc(-c3ccccc3)ns2)CC1` [Example 14], the IC50 was found to be 2 µM.

The compound `CC(=O)N1CCN(S(=O)(=O)c2nc(-c3ccccc3)ns2)CC1` [Example 15] gave an IC50 of 2 µM. This lies in the single-digit micromolar range.

In the case of `C[C@H](NS(=O)(=O)c1nc(-c2ccccc2)ns1)C(=O)O` [Example 16, (S)-2-(3-Phenyl-(1,2,4)-thiadiazole-5-sulfonylamino)propionic acid], the IC50 is 10 µM. This IC50 lies about 5-fold higher than the previous one. The figure for `C[C@H](NS(=O)(=O)c1nc(-c2ccccc2)ns1)C(=O)OCc1ccccc1` [Example 17] is 10 µM; for `O=C(O)[C@@H]1CCCN1S(=O)(=O)c1nc(-c2ccccc2)ns1` [Example 18] it is 8 µM. `O=C(O)CNS(=O)(=O)c1nc(-c2ccccc2)ns1` [Example 19] displayed an IC50 of 40 µM. This IC50 is about 5-fold higher than that of the compound before. Compound `O=C(c1ccc(F)cc1)C1CCN(S(=O)(=O)c2nc(-c3ccccc3)ns2)CC1` [Example 20] came in with an IC50 of 12 µM. Compared with the last compound, the IC50 is about 3.3-fold lower. Compound `O=C(O)CCNS(=O)(=O)c1nc(-c2ccccc2)ns1` [Example 21] registered an IC50 of 6 µM. As for `O=C(O)[C@H](Cc1ccccc1)NS(=O)(=O)c1nc(-c2ccccc2)ns1` [Example 22], the IC50 was determined as 20 µM. The figure for `CC(C)OC(=O)[C@H](C)NS(=O)(=O)c1nc(-c2ccccc2)ns1` [Example 23] is 6 µM; for `COc1ccc(-c2nsc(S(=O)(=O)N3CCN(C)CC3)n2)cc1Cl` [Example 24] it is 20 µM; for `CN1CCN(S(=O)(=O)c2nc(-c3ccc(Cl)cc3)ns2)CC1` [Example 25] it is 2 µM.
